System: oxidation of the L-DOPA under the action of the bacterial extract (intracellular extract of Cutibacterium acnes CIP 53.117)
Assay: In vitro evaluation of the ability to inhibit the development of the colour (absorbance at 475 nm of L-DOPA + Cutibacterium acnes extract)
Format: biochemical
Settings: for inhibiting the development of the colour (result in words): compared with Reference (absence of treatment); for optical density at 475 nm: 32° C.; for % inhib (percentage of inhibition of the formation of the coloured product): from initial rate of oxidation between 10 and 40 minutes vs reference composition
From the text: This method is based on the measurement of absorbance, over time, carried out directly on a composition formed of a mixture of intracellular extract of bacteria of Cutibacterium acnes type, of 3,4-dihydroxy-L-phenylalanine (L-DOPA) and of a test compound. The measurements are compared with those carried out for a mixture of an intracellular extract of bacteria of Cutibacterium acnes type and of 3,4-dihydroxy-L-phenylalanine (L-DOPA), in the absence of test compound (reference). The method is adapted from a method for the enzymatic assay of the tyrosinase activity (Behbahani et al., Microchemical Journal (1993), 47, 251), which is based on the absorbance properties at 475 nm of a coloured intermediate of the pathway for the biosynthesis of melanin starting from L-DOPA, namely dopachrome, a product of the oxidation of L-DOPA. An intracellular extract of bacteria of Cutibacterium acnes CIP 53.117 type stored at 4° C. in the lyophilized form is suspended in 1×PBS (supplied by Gibco BRL Life Technologies) at a concentration of 6 mg/ml. A solution of L-DOPA at a concentration of 0.5 mg/ml is prepared by bringing together L-DOPA (supplied by Sigma-Aldrich) and milliQ water, so as to have an L-DOPA concentration of 1 mg/ml, then diluting with 1×PBS (Dulbecco's Phosphate Buffered Saline, supplied by Gibco BRL Life Technologies). The mixture of 50 μl of these two solutions and of 100 μl of 1×PBS (Dulbecco's Phosphate Buffered Saline, supplied by Gibco BRL Life Technologies) results in a composition with a total volume of 200 μl containing L-DOPA (at a concentration of 125 μg/ml) and Cutibacterium acnes extract (at a concentration of 1.5 mg/ml). The test compositions and the reference composition are introduced separately into wells of a 96-well microplate suitable for reading in visible spectrophotometry, and placed at a temperature of 32° C. The formation of a coloured product is monitored over time by spectrophotometry. To do this, the absorbance, or optical density (O.D.), is measured at 475 nm from the time 0 to the time 2 hours by means of a Spectra Max M5e reader and the Spectra Max software (the time 0 corresponds to the introduction of the composition into the wells). The ability to inhibit the development of the colour of a given compound was assessed by comparing the absorbance measurements obtained for the test compositions with those obtained for the reference composition. More specifically, the inhibitory effect of the test compound was evaluated by comparing the initial rate of oxidation of the L-DOPA under the action of the bacterial extract at 475 nm for the test composition with that of the reference composition in order to obtain a corresponding percentage of inhibition. In practice, the initial rate (Vi) of the oxidation reaction is calculated from the linear part of the curve of the graph of the absorbance values. As this part lies between 10 and 40 minutes (see the graph in FIG. 1), the initial rate of the oxidation reaction is determined using the following relationship: [formula] The percentage of inhibition (% inhib) of a given compound with regard to the formation of the coloured product is subsequently obtained using the values of the initial rate of the oxidation reaction for the reference composition (Viref) and for the test composition ([…]) according to the following relationship: [formula] Within the meaning of the invention, a compound is regarded as having an inhibitory effect if the % inhib value is at least 15%.

[1] = test compound 12.5 μM, duration 0 minutes
[2] = test compound 12.5 μM, duration 10 minutes
[3] = test compound 12.5 μM, duration 20 minutes
[4] = test compound 12.5 μM, duration 30 minutes
[5] = test compound 12.5 μM, duration 40 minutes
[6] = test compound 12.5 μM, duration 60 minutes
[7] = test compound 12.5 μM, duration 80 minutes
[8] = test compound 12.5 μM, duration 100 minutes
[9] = test compound 12.5 μM, duration 120 minutes
[10] = test compound 25 μM, duration 0 minutes
[11] = test compound 25 μM, duration 10 minutes
[12] = test compound 25 μM, duration 20 minutes
[13] = test compound 25 μM, duration 30 minutes
[14] = test compound 25 μM, duration 40 minutes
[15] = test compound 25 μM, duration 60 minutes
[16] = test compound 25 μM, duration 80 minutes
[17] = test compound 25 μM, duration 100 minutes
[18] = test compound 25 μM, duration 120 minutes
[19] = test compound 50 μM, duration 0 minutes
[20] = test compound 50 μM, duration 10 minutes
[21] = test compound 50 μM, duration 20 minutes
[22] = test compound 50 μM, duration 30 minutes
[23] = test compound 50 μM, duration 40 minutes
[24] = test compound 50 μM, duration 60 minutes
[25] = test compound 50 μM, duration 80 minutes
[26] = test compound 50 μM, duration 100 minutes
[27] = test compound 50 μM, duration 120 minutes
[28] = test compound 100 μM, duration 0 minutes
[29] = test compound 100 μM, duration 10 minutes
[30] = test compound 100 μM, duration 20 minutes
[31] = test compound 100 μM, duration 30 minutes
[32] = test compound 100 μM, duration 40 minutes
[33] = test compound 100 μM, duration 60 minutes
[34] = test compound 100 μM, duration 80 minutes
[35] = test compound 100 μM, duration 100 minutes
[36] = test compound 100 μM, duration 120 minutes

CN(CC(=O)O)C(=O)c1ccc[nH]c1=S [Compound 3, N-methyl-N-[(2-thioxo-1,2-dihydropyridin-3-yl)carbonyl]glycine]
inhibiting the development of the colour (result in words): very effective
optical density at 475 nm [1]: 0.0555
optical density at 475 nm [2]: 0.0565
optical density at 475 nm [3]: 0.0575
optical density at 475 nm [4]: 0.0595
optical density at 475 nm [5]: 0.0613
optical density at 475 nm [6]: 0.0647
optical density at 475 nm [7]: 0.0677
optical density at 475 nm [8]: 0.0686
optical density at 475 nm [9]: 0.0694
% inhib (percentage of inhibition of the formation of the coloured product) (test compound 12.5 μM): 39%
optical density at 475 nm [10]: 0.0549
optical density at 475 nm [11]: 0.0569
optical density at 475 nm [12]: 0.0578
optical density at 475 nm [13]: 0.0594
optical density at 475 nm [14]: 0.0607
optical density at 475 nm [15]: 0.0630
optical density at 475 nm [16]: 0.0651
optical density at 475 nm [17]: 0.0664
optical density at 475 nm [18]: 0.0677
% inhib (percentage of inhibition of the formation of the coloured product) (test compound 25 μM): 51%
optical density at 475 nm [19]: 0.0539
optical density at 475 nm [20]: 0.0561
optical density at 475 nm [21]: 0.0575
optical density at 475 nm [22]: 0.0587
optical density at 475 nm [23]: 0.0594
optical density at 475 nm [24]: 0.0609
optical density at 475 nm [25]: 0.0623
optical density at 475 nm [26]: 0.0632
optical density at 475 nm [27]: 0.0639
% inhib (percentage of inhibition of the formation of the coloured product) (test compound 50 μM): 58%
optical density at 475 nm [28]: 0.0579
optical density at 475 nm [29]: 0.0606
optical density at 475 nm [30]: 0.0612
optical density at 475 nm [31]: 0.0619
optical density at 475 nm [32]: 0.0623
optical density at 475 nm [33]: 0.0618
optical density at 475 nm [34]: 0.0606
optical density at 475 nm [35]: 0.0605
optical density at 475 nm [36]: 0.0609
% inhib (percentage of inhibition of the formation of the coloured product) (test compound 100 μM): 78%

CCOC(=O)CN(C)C(=O)c1ccc[nH]c1=S [Compound 4, Ethyl N-methyl-N-[(2-thioxo-1,2-dihydropyridin-3-yl)carbonyl]glycinate]
inhibiting the development of the colour (result in words): very effective
optical density at 475 nm [1]: 0.0550
optical density at 475 nm [2]: 0.0571
optical density at 475 nm [3]: 0.0585
optical density at 475 nm [4]: 0.0604
optical density at 475 nm [5]: 0.0627
optical density at 475 nm [6]: 0.0659
optical density at 475 nm [7]: 0.0679
optical density at 475 nm [8]: 0.0696
optical density at 475 nm [9]: 0.0709
% inhib (percentage of inhibition of the formation of the coloured product) (test compound 12.5 μM): 43%
optical density at 475 nm [10]: 0.0573
optical density at 475 nm [11]: 0.0586
optical density at 475 nm [12]: 0.0595
optical density at 475 nm [13]: 0.0609
optical density at 475 nm [14]: 0.0623
optical density at 475 nm [15]: 0.0650
optical density at 475 nm [16]: 0.0682
optical density at 475 nm [17]: 0.0695
optical density at 475 nm [18]: 0.0703
% inhib (percentage of inhibition of the formation of the coloured product) (test compound 25 μM): 63%
optical density at 475 nm [19]: 0.0558
optical density at 475 nm [20]: 0.0574
optical density at 475 nm [21]: 0.0580
optical density at 475 nm [22]: 0.0591
optical density at 475 nm [23]: 0.0599
optical density at 475 nm [24]: 0.0617
optical density at 475 nm [25]: 0.0634
optical density at 475 nm [26]: 0.0654
optical density at 475 nm [27]: 0.0666
% inhib (percentage of inhibition of the formation of the coloured product) (test compound 50 μM): 75%
optical density at 475 nm [28]: 0.0578
optical density at 475 nm [29]: 0.0579
optical density at 475 nm [30]: 0.0593
optical density at 475 nm [31]: 0.0601
optical density at 475 nm [32]: 0.0608
optical density at 475 nm [33]: 0.0618
optical density at 475 nm [34]: 0.0623
optical density at 475 nm [35]: 0.0627
optical density at 475 nm [36]: 0.0631
% inhib (percentage of inhibition of the formation of the coloured product) (test compound 100 μM): 71%
